Test results taken from patent US12264134B2 (Merck Sharp & Dohme LLC, priority 2018, dated 2025).
pIC50: −log10 of the molar value.

Biological target: IDO1 (Homo sapiens, UniProt P14902)
Experiment: IDO1 Cellular Assay in HeLa Cells Stimulated with IFNγ
Format: cell-based
Details: read-out: HeLa Cell Potency, IC50

IDO1, sequence (P14902 whole entry): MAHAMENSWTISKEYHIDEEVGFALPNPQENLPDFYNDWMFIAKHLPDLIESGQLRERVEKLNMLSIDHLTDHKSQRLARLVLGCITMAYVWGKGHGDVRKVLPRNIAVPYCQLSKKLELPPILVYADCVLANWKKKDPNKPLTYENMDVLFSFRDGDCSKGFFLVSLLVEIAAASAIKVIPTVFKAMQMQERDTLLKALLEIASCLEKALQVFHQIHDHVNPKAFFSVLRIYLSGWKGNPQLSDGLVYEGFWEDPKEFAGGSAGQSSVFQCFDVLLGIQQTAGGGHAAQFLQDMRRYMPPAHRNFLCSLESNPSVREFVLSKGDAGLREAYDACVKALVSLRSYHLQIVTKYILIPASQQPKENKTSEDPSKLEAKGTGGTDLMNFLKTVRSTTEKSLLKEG

Compound | pIC50
Cc1cccc(N2CCN(C(=O)Cn3nc(C(=O)N4CCC(n5cncn5)CC4)c4c3CCC4)CC2)c1C [Example 132, 1-[4-(2,3-dimethylphenyl)piperazin-1-yl]-2-{3-[4-(1H-1,2,4-triazol-1-yl)piperidine-1-carbonyl]-5,6-dihydrocyclopenta[c]pyrazol-1(4H)-yl}ethan-1-one] | 8.34
C[C@@H]1CN(C(=O)c2nn(CC(=O)N3CCN(c4ccc5c(c4)CCO5)CC3)c3c2CCC3)C[C@H](C)O1 [Example 31, 1-[4-(2,3-dihydro-1-benzofuran-5-yl)piperazin-1-yl]-2-{3-[(2R,6S)-2,6-dimethylmorpholine-4-carbonyl]-5,6-dihydrocyclopenta[c]pyrazol-1(4H)-yl}ethan-1-one] | 6.75
Cc1cccc(N2CCN(C(=O)Cn3nc(C(=O)N4CCC(O)C(F)C4)c4c3CCCCC4)CC2)c1C (stereo not drawn) [Example 411, 1-(4-(2,3-dimethylphenyl)piperazin-1-yl)-2-(3-(3-fluoro-4-hydroxypiperidine-1-carbonyl)-5,6,7,8-tetrahydrocyclohepta[c]pyrazol-1(4H)-yl)ethanone] | 8.06
Cc1cccc(N2CCN(C(=O)Cn3nc(C(=O)N4CC[C@H](O)[C@@H](F)C4)c4c3CCCCC4)CC2)c1C [Example 413, 1-(4-(2,3-dimethylphenyl)piperazin-1-yl)-2-(3-((3S,4S)-3-fluoro-4-hydroxypiperidine-1-carbonyl)-5,6,7,8-tetrahydrocyclohepta[c]pyrazol-1(4H)-yl)ethanone] | 8.03
O=C(Cn1nc(C(=O)N2CCC(O)CC2)c2c1CCC2)N1CCN(C2CCc3ccccc32)CC1 (stereo not drawn) [Example 435, 1-(4-(2,3-dihydro-1H-inden-1-yl)piperazin-1-yl)-2-(3-(4-hydroxypiperidine-1-carbonyl)-5,6-dihydrocyclopenta[c]pyrazol-1(4H)-yl)ethanone] | 6.58
Cc1cccc(N2CCN(C(=O)Cn3nc(C(=O)N4CC5CCC4CC5O)c4c3CCC4)CC2)c1C (stereo not drawn) [Example 151, 1-[4-(2,3-dimethylphenyl)piperazin-1-yl]-2-[3-(5-hydroxy-2-azabicyclo[2.2.2]octane-2-carbonyl)-5,6-dihydrocyclopenta[c]pyrazol-1(4H)-yl]ethan-1-one] | 8.33
Cc1cccc(N2CCN(C(=O)Cn3nc(C(=O)N4CCC(c5cc[nH]n5)CC4)c4c3CCC4)CC2)c1C [Example 145, 1-[4-(2,3-dimethylphenyl)piperazin-1-yl]-2-{3-[4-(1H-pyrazol-3-yl)piperidine-1-carbonyl]-5,6-dihydrocyclopenta[c]pyrazol-1(4H)-yl}ethan-1-one] | 8.75
COC(=O)N1CCN(C(=O)c2nn(CC(=O)N3CCN(c4cccc(C)c4C)CC3)c3c2CCC3)CC1 [Example 86, methyl 4-(1-{2-[4-(2,3-dimethylphenyl)piperazin-1-yl]-2-oxoethyl]-1,4,5,6-tetrahydrocyclopenta[c]pyrazole-3-carbonyl)piperazine-1-carboxylate] | 8.39
Cc1cccc(N2CCN(C(=O)Cn3nc(C(=O)N4CCC(O)(CCC(F)(F)F)CC4)c4c3CCC4)CC2)c1C [Example 170, 1-[4-(2,3-dimethylphenyl)piperazin-1-yl]-2-{3-[4-hydroxy-4-(3,3,3-trifluoropropyl)piperidine-1-carbonyl]-5,6-dihydrocyclopenta[c]pyrazol-1(4H)-yl}ethan-1-one] | 8.20
Cc1cccc(N2CCN(C(=O)Cn3nc(C(=O)N4CCC(O)CC4(C)C)c4c3C[C@H]3C[C@@H]43)CC2)c1C (stereo partly drawn) [Example 216, 1-[4-(2,3-dimethylphenyl)piperazin-1-yl]-2-[(3bR,4aR)-3-(4-hydroxy-2,2-dimethylpiperidine-1-carbonyl)-3b,4,4a,5-tetrahydro-1H-cyclopropa[3,4]cyclopenta[1,2-c]pyrazol-1-yl]ethan-1-one] | 8.14
Cc1cccc(N2CCN(C(=O)Cn3nc(C(=O)N4CCC(C)(CN)CC4)c4c3CCC4)CC2)c1C [Example 179, 2-{3-[4-(aminomethyl)-4-methylpiperidine-1-carbonyl]-5,6-dihydrocyclopenta[c]pyrazol-1(4H)-yl}-1-[4-(2,3-dimethylphenyl)piperazin-1-yl]ethan-1-one] | 7.08

Further compounds by rising pIC50, results first:

pIC50 | Compound
6.35 | C[C@@H]1CN(C(=O)c2nn(CC(=O)N3CCN(c4ccc(F)c(C(F)F)c4)CC3)c3c2CCC3)C[C@H](C)O1 [Example 58, 1-{4-[3-(difluoromethyl)-4-fluorophenyl]piperazin-1-yl}-2-{3-[(2R,6S)-2,6-dimethylmorpholine-4-carbonyl]-5,6-dihydrocyclopenta[c]pyrazol-1(4H)-yl}ethan-1-one]
6.52 | O=C(Cn1nc(C(=O)N2CC[C@H](O)[C@H](F)C2)c2c1CCC2)N1CCN(C2CCCc3ccccc32)CC1 (single isomer, unassigned) [Example 426]
6.69 | 1-(2-(difluoromethyl)-4-(2,3-dimethylphenyl)piperazin-1-yl)-2-((3bR,4aR)-3-(4-hydroxypiperidine-1-carbonyl)-3b,4,4a,5-tetrahydro-1H-cyclopropa[3,4]cyclopenta[1,2-c]pyrazol-1-yl)ethanone [Example 387]
6.72 | Cc1cccc(N2CCN(C(=O)Cn3nc(C(=O)N4CCNCC4)c4c3CCC4)CC2)c1C [Example 195, 1-[4-(2,3-dimethylphenyl)piperazin-1-yl]-2-[3-(piperazin-1-carbonyl)-5,6-dihydrocyclopenta[c]pyrazol-1(4H)-yl]ethan-1-one]
6.75 | C[C@@H]1CN(C(=O)c2nn(CC(=O)N3CCN(c4ccc5c(c4)CCCO5)CC3)c3c2CCC3)C[C@H](C)O1 [Example 73, 1-[4-(3,4-dihydro-2H-1-benzopyran-6-yl)piperazin-1-yl]-2-{3-[(2R,6S)-2,6-dimethylmorpholine-4-carbonyl]-5,6-dihydrocyclopenta[c]pyrazol-1(4H)-yl}ethan-1-one]
6.85 | Cc1ccc(N2CCN(C(=O)Cn3nc(C(=O)N4C[C@@H](C)O[C@@H](C)C4)c4c3CCC4)CC2)cc1 [Example 34, 2-{3-[(2R,6S)-2,6-dimethylmorpholine-4-carbonyl]-5,6-dihydrocyclopenta[c]pyrazol-1(4H)-yl}-1-[4-(4-methylphenyl)piperazin-1-yl]ethan-1-one]
7.08 | Cc1cccc(N2CCN(C(=O)Cn3nc(C(=O)N4C[C@@H](C)O[C@@H](C)C4)c4c3CCC4)CC2)c1 [Example 488, 2-(3-((2S,6R)-2,6-dimethylmorpholine-4-carbonyl)-5,6-dihydrocyclopenta [c]pyrazol-1(4H)-yl)-1-(4-(m-tolyl)piperazin-1-yl)ethanone]
7.52 | Cc1cccc(N2CCN(C(=O)Cn3nc(C(=O)N4CCC(O)(C(N)=O)CC4)c4c3CCC4)CC2)c1C [Example 169, 1-(1-{2-[4-(2,3-dimethylphenyl)piperazin-1-yl]-2-oxoethyl}-1,4,5,6-tetrahydrocyclopenta[c]pyrazole-3-carbonyl)-4-hydroxypiperidine-4-carboxamide]
7.55 | Cc1cccc(N2CCN(C(=O)Cn3nc(C(=O)N4CC[C@@H](N)C(F)(F)C4)c4c3CCC4)CC2)c1C (single isomer, unassigned) [Example 206, [(4R or 4S)-1-[1-[2-[4-(2,3-dimethylphenyl)piperazin-1-yl]-2-oxo-ethyl]-5,6-dihydro-4H-cyclopenta[c]pyrazole-3-carbonyl]-3,3-difluoro-4-piperidyl]ammonium;2,2,2-trifluoroacetate]
7.72 | Cc1cccc(N2CCN(C(=O)Cn3nc(C(=O)N4CCC(C(N)=O)CC4)c4c3CCC4)CC2)c1C [Example 137, 1-(1-{2-[4-(2,3-dimethylphenyl)piperazin-1-yl]-2-oxoethyl}-1,4,5,6-tetrahydrocyclopenta[c]pyrazole-3-carbonyl)piperidine-4-carboxamide]
7.73 | Cc1cccc(N2CCN(C(=O)Cn3nc(C(=O)N4C5CCC4CC(O)C5)c4c3CCC4)CC2)c1C (stereo not drawn) [Example 150, 1-[4-(2,3-dimethylphenyl)piperazin-1-yl]-2-[3-(3-hydroxy-8-azabicyclo[3.2.1]octane-8-carbonyl)-5,6-dihydrocyclopenta[c]pyrazol-1(4H)-yl]ethan-1-one]
7.77 | Cc1cccc(N2CCN(C(=O)Cn3nc(C(=O)N4CC[C@H](O)[C@H](F)C4)c4c3CCC4)CC2)c1C [Example 97, 1-[4-(2,3-dimethylphenyl)piperazin-1-yl]-2-{3-[(3R,4S)-3-fluoro-4-hydroxypiperidine-1-carbonyl]-5,6-dihydrocyclopenta[c]pyrazol-1(4H)-yl}ethan-1-one]
7.80 | CC1=NC2(CCN(C(=O)c3nn(CC(=O)N4CCN(c5cccc(C)c5C)CC4)c4c3CCC4)CC2)C(=O)N1 [Example 134, 8-(1-{2-[4-(2,3-dimethylphenyl)piperazin-1-yl]-2-oxoethyl}-1,4,5,6-tetrahydrocyclopenta[c]pyrazole-3-carbonyl)-2-methyl-1,3,8-triazaspiro[4.5]dec-1-en-4-one]
8.56 | Cc1cccc(N2CCN(C(=O)Cn3nc(C(=O)N4CCC(C)(O)CC4)c4c3CCC4)CC2)c1C [Example 82, 1-[4-(2,3-dimethylphenyl)piperazin-1-yl]-2-[3-(4-hydroxy-4-methylpiperidine-1-carbonyl)-5,6-dihydrocyclopenta[c]pyrazol-1(4H)-yl]ethan-1-one]
8.73 | Cc1cccc(N2CCN(C(=O)Cn3nc(C(=O)N4C[C@@H](C)O[C@@H](C)C4)c4c3CC3CC43)CC2)c1C (stereo partly drawn) [Example 310, 2-{3-[(2R,6S)-2,6-dimethylmorpholine-4-carbonyl]-3b-4,4a,5-tetrahydro-1H-cyclopropa[3,4]cyclopenta[1,2-c]pyrazol-1-yl}-1-[4-(2,3-dimethylphenyl)piperazin-1-yl]ethan-1-one]
9.07 | Cc1cccc(N2CCN(C(=O)Cn3nc(C(=O)N4CCC5(CC4)CC(=O)N5)c4c3C[C@H]3C[C@@H]43)CC2)c1C [Example 219, 7-[(3bR,4aR)-1-{2-[4-(2,3-dimethylphenyl)piperazin-1-yl]-2-oxoethyl}-3b,4,4a,5-tetrahydro-1H-cyclopropa[3,4]cyclopenta[1,2-c]pyrazole-3-carbonyl]-1,7-diazaspiro[3.5]nonan-2-one]
